In patent US5641666A, “Soraphen A resistant fungi and acetyl-CoA carboxylase” (priority 1993, dated 1997):
In brackets after ≈: the same amount, converted by molar mass.

Key:
[1] = system: strains YS 18 and YHV 18 (culture A); test: Plating of culture A on YPD-SOR-10; assay type: cell-based, Saccharomyces cerevisiae; settings: 10 μg/ml soraphen A, 30° C., 3 days
Description: YPD-SOR-10 is YPD medium supplemented with 10 μg/ml soraphen A.
Each of the isogenic strains YS 18 and YHV 18 is grown in 5 ml of YPD to late exponential phase. The culture is diluted 10^4 fold to give culture A the viable cell number of which is determined. Twenty tubes each containing 5 ml of YPD are inoculated with 10 μl of culture A, which corresponds to about 10 cells, and are incubated at 28° C. until a density of 10^7 cells/ml is attained. 1 ml aliquots of each of the tubes are plated on YPD-SOR-10 and the plates are incubated at 30° C. for 3 days. To ensure isolation of independent mutants from each of the 20 YPD-SOR-10 plates only colonies with different shape or sizes are selected. Mutant colonies are restreaked twice on YPD before storing them as glycerol stock cultures at -70° C.
To exclude the presence of soraphen A resistant routants at the beginning of the cultivation of culture A, the remainder of culture A is plated on YPD-SOR-10 and incubated at 30° C. for 3 days.

[2] = system: fungi; settings: cited from earlier work
[3] = system: YS 18 yeast cells; test: Growth curves of yeast in liquid YPD medium with soraphen A (OD600, viable cell titer); assay type: cell-based, Saccharomyces cerevisiae
Description: Saccharomyces cerevisiae strain YS 18 (MATeα; his 3-11, 3-15; leu 2-3, 2-112; ura 3-Δ5; can^R; cir^+) is chosen as the wild-type. YHV 18 (MATa; his 3-11, 3-15; leu 2-3, 2-112; ura 3-Δ5; canst; cir^+) is isolated after a mating type switch of YS 18 and is therefore isogenic.
100 ml YPD medium in a 500 ml flask is inoculated with about 10^7 YS 18 yeast cells/ml and incubated for growth at 180 rpm at 30° C. Before the addition of soraphen A at time point 0, the cells have already been incubated for 1 hour. The control is treated identically, but receives no soraphen A. Total cell numers are monitored by measuring the OD600. The number of viable cells called the […] is determined by plating on YPD plates. The number of soraphen A resistant cells is counted by plating on YPD-SOR plates containing the same soraphen A concentration as in the flask.

[4] = system: acetyl-CoA carboxylase; settings: cited from earlier work
[5] = system: diploids from the backcrosses of soraphen A resistant yeast strains; test: Determination of the minimal inhibitory concentration (MIC) on YPD-SOR plates, diploids from backcrosses of soraphen A resistant strains; assay type: cell-based, Saccharomyces cerevisiae; settings: diploids from backcrosses vs wild-type
Description: In a first step all of the mutants are backcrossed with the wild-type strain of the opposite mating type, the diploid strains are sporulated and the asci are subjected to tetrad analysis. From each cross at least six complete tetra are examined and all of them are found to segregate 2:2 for soraphen A resistance and soraphen A sensitivity. This indicates mutations at a single genetic locus.
In another step the MIC of the dipbids from the backcrosses is determined.
Yeast colonies are grown for 2 days at 30° C. on a YPD plate and replica pated on a set of YPD-SOR plates. The following soraphen A concentrations are used: 0 μg/ml, 0,35 μg/ml, 0,76 μg/ml, 1,5 μg/ml, 3,13 μg/ml 6,7 μg/ml, 15,45 μg/ml and 54,5 μg/ml. After growth for 24 hours at 30° C. the plates are inspected for growth.

[6] = system: bacteria; settings: cited from earlier work

Question: For `COC1/C=C/C(C)C2OC(O)(C(C)C(=O)OC(c3ccccc3)CCCCC1OC)C(OC)C(O)C2C` (centres unmarked) [soraphen A], which growth of colonies [1] is on record?
Answer: Its growth of colonies is “No growth of colonies is observed”.

Question: What about the “activity as a fungicide” value [2] of the same compound?
Answer: Its value is “strong activity as a fungicide”.

Question: What about the MIC ([3]; Saccharomyces cerevisiae, YS 18 wild-type, YPD, 30° C., 180 rpm, read-out: minimal inhibitory concentration (MIC) as determined from the growth curves) of the same compound?
Answer: The MIC was 0.1 µg/mL (≈ 0.192 µM).

Question: And the “duration of complete inhibition of growth” value ([3]; YS 18, YPD, 30° C., thereafter growth recovers due to soraphen A resistant mutants)?
Answer: The value was “approximately 40 hours”.

Question: What about the “cell killing (viable cell counts)” value ([3]; YS 18, during the first 20 hours) of the same compound?
Answer: Its value is “extensive cell killing occurs”.

Question: And the “interference with acetyl-CoA carboxylase” value [4]?
Answer: Its value is “shown to interfere with acetyl-CoA carboxylase”.

Question: What about the “sensitivity of the diploids compared with the wild-type strain” value [5] of the same compound?
Answer: Its value is “None of the diploids is as sensitive to soraphen A as the wild-type strain”.

Question: And the effect on bacteria [6]?
Answer: Its effect on bacteria is “without effect on bacteria”.
